Patent US20190361006A1, “METHOD OF PREDICTING CLINICAL OUTCOME OF ANTICANCER AGENTS” (MITRA RXDX, INC., priority 2017, published 2019)

Key:
[1] = system: Human lung cancer sections; assay: Patient-derived ex-vivo tumor explant culture on tumor microenvironment platform; H&E and IHC for cleaved caspase 3, MICA/B and CD56; assay type: cell-based; settings: cultured 72 hours in tumor microenvironment platform, IHC, FIG. 1
Experimental: The relevance of changes in the immune contexture of the tumor tissue culture microbed for a non-immunmodulatory agent, either as monotherapy or in combination with an immunomodulatory agent, was examined. Human lung cancer sections from the same patient cultured for 72 hours in the tumor microenvironment platform with gefitinib (a small molecule kinase inhibitor) alone, osimertinib (another small molecule kinase inhibitor)+Pembrolizumab, or vehicle control were assayed for H&E staining and cleaved caspase 3, MICA/B (cell surface ligands that bind immunoreceptors present on natural killer (NK) cells), and CD56 (marker of NK cells) expression.

[2] = system: gastrointestinal stromal tumor; assay: M-score (sensitivity index) from tumor-associated marker assays on tumor tissue culture; assay type: cell-based, human; settings: Patient 1, gastrointestinal stromal tumor
Experimental: The tumor tissue cultures were also evaluated using standard assays for tumor proliferation, tumor cell death, tumor morphology, and tumor cell viability as previously described, including tetrazolium salt WST-1 viability assay; LDH release; ATP uptake; glucose uptake; Caspase 3, Caspase 8, and Ki67 expression; and H&E staining. The results of the assays for tumor-associated markers were used to generate assessment scores that were input into a machine-trained algorithm to generate a clinical outcome predictor in the form of an “M-score” for each patient.
M-score based on tumor-associated markers was determined for each of the tissue pairs as previously described.
(§1) The M-score based on tumor-associated markers and tumor:stroma ratio of CD56+ cells in tumor tissue cultures under control conditions or under pressure from treatment with anticancer drug regimens was determined as described above for 3 different patients whose clinical outcome in response to the respective treatment was known.

[3] = system: gastrointestinal stromal tumor; assay: CD56+ NK cell tumor:stroma ratio by IHC in tumor tissue culture; assay type: cell-based, human; settings: Patient 1, gastrointestinal stromal tumor; control ratio 3
Experimental: The spatial heterogeneity of CD56+ lymphocytes (NK) in areas of tumor vs stroma in pairs of tissues (for control and treatment conditions) from each of a number of patients cultured in the tumor microenvironment platform and treated with various conventional and immuno-modulatory therapies was investigated. IHC analysis for CD56+ cells in slices of tissues under treatment and control conditions was performed, and the number of CD56+ cells in tumor and stromal regions was determined (FIG. 2A). M-score based on tumor-associated markers was determined for each of the tissue pairs as previously described. The ratio of CD56+ cells in areas of tumor cells vs areas of stroma in untreated and drug pressure conditions from the tissue pairs was calculated (FIG. 2B), and the fold change from vehicle to treatment conditions for each pair was determined and binned by M-score >25 and M-score ≤25 (FIG. 2C).
The predictive power of the change in spatial heterogeneity of CD56+NK cells in areas of tumor vs stroma under pressure from treatment with anticancer drug regimens was evaluated. […]

[4] = system: gastrointestinal stromal tumor; assay: Known clinical outcome of the patient in response to the treatment; assay type: in vivo, human; settings: Patient 1, gastrointestinal stromal tumor
Experimental: as §1

Structure (SMILES)	Cleaved caspase 3 expression ([1]; vs vehicle control)	infiltration of NK cells (CD56) ([1]; vs vehicle-treated)	tumor cell MICA/B expression ([1]; vs vehicle-treated)	M-score [2]	M-score prediction [2]	Treatment CD56+ tumor:stroma ratio [3]	Clinical response [4]
COc1cc2ncnc(Nc3ccc(F)c(Cl)c3)c2cc1OCCCN1CCOCC1 [gefitinib]	significantly increased	increase	increase	–	–	–	–
CC[C@@]1(O)C(=O)OCc2c1cc1n(c2=O)Cc2cc3c(CN(C)C)c(O)ccc3nc2-1 [topotecan]	–	–	–	(M-score = 36)	Responder	5	Responder
